Publication PMC8344022, “Small-molecule inhibitor of AF9/ENL-DOT1L/AF4/AFF4 interactions suppresses malignant gene expression and tumor growth” (Theranostics, 2021)

How the values were obtained:
Panc-28 cells = assay: Antiproliferation assay (MTT); assay type: cell-based; settings: 168 h, 7-day incubation, read-out: Cytotoxicity EC50
Method in brief: (§1)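 XTT for blood cancer suspension cells, MTT for solid tumor lines; exposure 7 d (test cpd) vs 14 d (reference cpd); EC50 = mean of ≥3 independent runs.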

Panc-1 cells = assay: Antiproliferation assay (MTT); assay type: cell-based; settings: Homo sapiens, 168 h, 7-day incubation, read-out: Cytotoxicity EC50
Method in brief: as §1

MDA-MB-231 cells = assay: Antiproliferation assay (MTT); assay type: cell-based; settings: Homo sapiens, 168 h, 7-day incubation, read-out: Cytotoxicity EC50
Method in brief: as §1

[1] = Tolerability in xenograft study (body weight, overt toxicity); assay type: in vivo
Experimental: In vivo antitumor activity of compound 1 was evaluated in a commonly used mouse model of MLL-r leukemia, [26]. 10^7 MV4;11 cells in 0.1 mL of saline and Matrigel (1:1) were injected subcutaneously into NOD-SCID mice, which can develop palpable tumors in ~2 weeks.
In vivo antitumor studies. All of the mouse studies were conducted in strict compliance with an IRB-approved protocol. NOD-SCID mice (4 to 6 weeks old, from Jackson lab) were obtained and maintained under specific pathogen-free conditions. 10^7 MV4;11 cells in medical grade saline and Matrigel (1:1, 0.1 mL) were inoculated subcutaneously and palpable tumors (2-3 mm in diameter) were developed in ~ 2 weeks. Mice were treated with compound 1 (15 mg/kg/day for 10 days) in saline (0.1 mL) administered intraperitoneally. Tumors were measured every 2 days and estimated by using the formula a×b^2/2.

[2] = tested on: H3K79me2 at gene promoters in Molm-13 cells; assay: Chromatin immunoprecipitation (ChIP)-qPCR; assay type: cell-based
Experimental: Next, compound 1 was tested for its ability to change expression of characteristic MLL-r leukemia genes HoxA9, Meis1 and Myc. Myc is also overexpressed in a broad range of AML and other cancers. […] (Figure S5), presumably because SEC is not recruited there.
Chromatin immunoprecipitation. […] Cells were lysed with nuclear lysis buffer and sonicated to ~100-1000 bp fragments, which was incubated at 4 °C overnight with the H3K79me2 antibody (#5427, Cell signaling) and IgG (C15410206, Diagenode). Protein A/G Magnetic Beads (10 µL, Novus Biologicals) were added and incubated for 2 h. The beads were washed 3x with RIPA buffer and 2x with TE buffer. DNA on the beads was eluted for 2 hours at 68 °C in 100 μL of an elution buffer (20 mM Tris pH 7.5, 5 mM EDTA, 50 mM NaCl, 1% SDS, 50 μg/ml proteinase K) (2x), and purified using a ChIP DNA Clean & Concentrator kit (Novus Biologicals). qPCR was done using the method described above.

[3] = tested on: MLL-AF9-bound DOT1L and AF4 in Molm-13 cells; assay: Co-immunoprecipitation with N-terminal MLL antibody; assay type: cell-based; settings: 2 days
Experimental: (§2) Next, we investigated how compound 1 affects these transcription cofactors in the nucleus, where they regulate gene expression. […] DOT1L inhibitor EPZ4777 [25] reduced the methylation levels of H3K79, but not other proteins (Figure 3B). […] In this regard, despite lack of activity against DOT1L, compound 1 can mimic EPZ4777 to reduce H3K79 methylation.
Co-immunoprecipitation. 10^8 Molm-13 cells were treated with a compound or DMSO for 48 hr. Co-immunoprecipitation of the nuclear protein extracts (450 µg of total protein from 10^8 molm-13 cells) was performed using a Nuclear Complex Co-IP Kit (#54001, Active Motif). Briefly, 3 µg of MLL-N Rabbit mAb (#14689, Cell signaling) and 100 µL Protein G Agarose Beads (#37478, Cell signaling) were added and incubated with the nuclear extractions overnight at 4 °C. The Agarose beads with captured antibody and relevant protein complexes were isolated, washed and subjected to Western blot for protein detection.

AF9-AF4 interaction = molecular target: T1, AF9-AF4 interaction (Homo sapiens, UniProt P42568); assay: Alpha assay, AF9-AF4 interaction; assay type: binding; settings: read-out: IC50, inhibition of AF9-AF4 interaction
T1 construct: cDNA for human AF9 AHD domain (475-568) and ENL AHD domain (489-559) was synthesized; made in house; host or cells: E. coli BL21(DE3)
Experimental: (§3) ENL is also a major MLL fusion partner (~10%). The AHD domains of human ENL and AF9 share a high homology with 82% identity and 89% similarity (Figure S1A). […] Our attempts to develop an Alpha assay for ENL-DOT1L failed. […] Compound 1's activity against ENL-DOT1L was therefore not determined.
(§4) Alpha assays. Alpha assays were developed using Perkin-Elmer AlphaLisa anti-MBP kit, which contains streptavidin donor beads and anti-MBP acceptor beads. The assay was performed using a MBP-protein (5 nM), a biotinylated peptide (40 nM), and increasing concentrations of a compound in 25 µL buffer (PBS with 0.5 % BSA, pH 7.5) in 384-well plates according to the manufacturer's protocol and measured with a Tecan SPARK microplate reader. Data were imported into Prism (version 5.0), and IC50 values from 3 independent experiments with standard deviation were obtained by using a standard dose-response curve fitting.

ENL-AFF4 interaction = molecular target: T2, ENL-AFF4 interaction (Homo sapiens, UniProt Q03111); assay: Alpha assay, ENL-AFF4 interaction; assay type: binding; settings: read-out: IC50, inhibition of ENL-AFF4 interaction
T2 construct: ENL AHD domain (489-559) was synthesized (by Genscript) and inserted into the pMAL c5X expression plasmid; made in house; host or cells: E. coli BL21(DE3)
Experimental: as §3, §4

[4] = tested on: nuclear protein levels in Molm-13 cells; assay: Western blot of nuclear proteins; assay type: cell-based; settings: 3 days
Experimental: as §2
Western blot. 3x10^6 cells/well were treated with increasing concentrations of a compound for 3 days and nuclear proteins extracted with the EpiQuik Nuclear Extraction Kit (Epigentek) according to the manufacturer's protocol. Equal amounts of proteins were separated on SDS-PAGE and transferred to PVDF membranes. The blots were probed with primary antibodies, followed by anti-rabbit or anti-mouse IgG (Thermo Scientific) secondary antibodies. The primary antibodies used in this research were MBP Mouse mAb (#2396, Cell signaling), DOT1L Rabbit mAb (#77087, Cell signaling), MLL-N Rabbit mAb (#14689, Cell signaling), ENL Rabbit mAb (#14893, Cell signaling), Di-Methyl-Histone H3K79 Rabbit mAb (#5427, Cell signaling), Mono-Methyl-Histone H3K79 Rabbit mAb (#9398, Cell signaling), Histone H3 Rabbit mAb (#4499, Cell signaling), AF4 Rabbit pAb (#NBP1-28705, Novusbio) and AFF4 Rabbit pAb (#ab103586, Abcam).

T2 sequence (Q03111 489-559): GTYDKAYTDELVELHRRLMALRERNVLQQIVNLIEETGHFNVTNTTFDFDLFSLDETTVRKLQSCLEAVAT
T1 sequence (P42568 475-568): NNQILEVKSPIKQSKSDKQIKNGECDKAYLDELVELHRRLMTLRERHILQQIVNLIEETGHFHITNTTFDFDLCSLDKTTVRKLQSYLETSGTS

CC(C)(C)c1ccc(-n2cc(C(=O)NC3CCNCC3)nc2-c2ccccc2)cc1 [Compound 1] gave an EC50 (Panc-28 cells) of 23.8 ± 0.2 µM, an EC50 (Panc-1 cells) of 15.1 ± 0.2 µM and an EC50 (MDA-MB-231 cells) of 13.5 ± 0.2 µM. For the same molecule, the Body weight ([1]; 15 mg/kg for Day 1-10) was “did not cause significant weight losses”, the Overt toxicity ([1]; mouse model of MLL-r leukemia, 15 mg/kg) was “without overt toxicity” and the “H3K79-Me2 in a non-transcribed DNA region” value [2] was “did not significantly reduce H3K79-Me2”. For the same molecule, the “H3K79me2 in the gene promoters of HoxA9 and Myc” value ([2]; 5 μM for 4 days) was “decreased levels of H3K79me2”, the “MLL-AF9-bound DOT1L and AF4 (Co-IP)” value [3] was “dose-dependent decrease of MLL-AF9-bound DOT1L and AF4” and the IC50 (AF9-AF4 interaction) was 1.5 ± 0.2 µM. For the same molecule, the IC50 (ENL-AFF4 interaction) was 3.3 ± 0.3 µM, the “Nuclear levels of DOT1L, H3K79me1 and me2, ENL and AFF4” value [4] was “reduced the nuclear levels of DOT1L, H3K79me1 and me2, ENL and AFF4” and the “Nuclear levels of MLL-AF9” value [4] was “unaffected”.
